Experimental data from US5079228A, “Peptide inhibitors of neutrophil activating factor induced chemotaxis” (Board of Regents, The University of Texas System, priority 1990, dated 1992).
Entries after “also recorded” stand apart in the source; their conditions may differ.

How the values were obtained:
[1] = tested on: neutrophil chemotaxis; conditions: Tanaka et al.; cited from earlier work
[2] = tested on: human neutrophils; assay: Neutrophil chemotaxis, leading front method in blind well chamber (chemotactic activity of the peptide itself); assay type: cell-based; conditions: for DISTANCE MOVED (% of control): control = RPMI-1640; for effect on cell migration (in words): peptide concentration of 1×10^-9 M, FIG. 1
Protocol: Each of the peptides was assayed for its ability to induce the directed migration of neutrophils towards itself. […] The distances migrated by the cells, under the influence of the various peptides, was therefore expressed as a percentage of the distance travelled in RPMI tissue culture medium alone. In the first experiments the effect of native NAF on the cells was compared to that of FMLP (FIG. I). […] None of the synthetic peptides induced chemotaxis either alone or in combination with one another when the synthetic peptides were examined under the same conditions (FIG. 2).
(§1) Human blood was anticoagulated with heparin.
(§2) Chemotaxis was performed using the leading front method as described by Zigmond and Hirsch.^21 The test material was placed in the lower well of a blind well chemotaxis chamber.^22 A five micron pore size, and 100 μl aliquot of the neutrophil preparation (1×10^6 cells/ml) in RPMI-1640 containing 1% albumin was added to the top of the filter and incubated at 37° C. for 30 min. (In some experiments neutrophils were pre-incubated in the presence of peptide for 10 min at room temperature before being added to the upper chamber.) The filter was then fixed and stained and mounted on a glass microscope slide. The leading front was determined by the position of the leading two cells. The distance that the leading two cells had moved through the filter was measured for six fields on each filter. The measurements were made with two filters for each set of conditions.

[3] = tested on: cytochalasin B primed neutrophils; assay: Enzyme release from neutrophils (β-D-glucuronidase, microtiter plate); assay type: cell-based, human; conditions: 37° C., 30 min, FIG. 3
Protocol: Neutrophil enzyme release was measured by a modification of the method of Goldstein and colleagues.^23 Cytochalasin B (Sigma Chemical Co., St. Louis, Mo.) was stored in dimethylsulphoxide at a concentration of 5 mg/ml and diluted to a concentration of 100 μg/ml in Hanks' balanced salt solution (HBSS) immediately before use. Neutrophils were prepared as described and incubated at a cell density of 5×10^6 cells/ml for ten minutes at room temperature in the presence of Cytochalasin B (10 μg/ml). Aliquots of 100 μl of the primed cell suspension were then distributed into the wells of a 96-well microtiter plate and 100 μl of stimulant was added. The cells were then incubated at 37° C. for 30 min. The plates were centrifuged at 850 rpm for 5 min, and 100 μl of supernatant was removed. The supernatants were assayed for β-D-glucuronidase activity.
The ability of native NAF and the synthetic peptides to induce the release of β-D-glucuronidase from cytochalasin B primed neutrophils was examined using a microtiter plate technique. […]
β-D-glucuronidase was measured by determining the change in absorbance of phenolphthalein β-D-glucuronide (Sigma Chemical Co.) at 540 nm by the method of Gianetto and DeDuve.^24 The results were expressed as picomoles of substrate hydrolysed per hour.

[4] = tested on: chemotaxis induced by FMLP; assay: Specificity: effect on FMLP-induced neutrophil chemotaxis; assay type: cell-based, human; conditions: FMLP 5 × 10^-9 M plus peptide 1 × 10^-6 M
Description: The peptides were examined to determine if any of the peptides could block the action of the native molecule. In these experiments the attractant in the lower well of the Boyden chamber contained both native NAF (1×10^-8 M) and one or more synthetic peptide(s) (1×10^-6 M) Table 2. The migration of the cells in RPMI tissue culture medium alone, or under the influence of native NAF or the individual peptides was also examined in each experiment. […] The mean migration of native NAF was an average of 79% (S.D.=3) above that of buffer alone, while the mean migration towards native NAF in the presence of NAF (3-25) was 32% (S.D.=10) and the mean migration towards native NAF in the presence of NAF (44-72) (S.D.=13) was 52% above control migration (Table 2). These reductions are statistically significant at p<0.002 by Student's t test. […]
Chemotaxis was performed using the leading front method as described by Zigmond and Hirsch.^21 The test material was placed in the lower well of a blind well chemotaxis chamber.^22 A five micron pore size, and 100 μl aliquot of the neutrophil preparation (1×10^6 cells/ml) in RPMI-1640 containing 1% albumin was added to the top of the filter and incubated at 37° C. for 30 min. […] The leading front was determined by the position of the leading two cells. The distance that the leading two cells had moved through the filter was measured for six fields on each filter. […]

[5] = tested on: Neutrophil activating factor induced human neutrophil chemotaxis; assay: Inhibition of NAF-induced neutrophil chemotaxis; assay type: cell-based
Description: The peptides were examined to determine if any of the peptides could block the action of the native molecule. In these experiments the attractant in the lower well of the Boyden chamber contained both native NAF (1×10^-8 M) and one or more synthetic peptide(s) (1×10^-6 M) Table 2. The migration of the cells in RPMI tissue culture medium alone, or under the influence of native NAF or the individual peptides was also examined in each experiment. […] The mean migration of native NAF was an average of 79% (S.D.=3) above that of buffer alone, while the mean migration towards native NAF in the presence of NAF (3-25) was 32% (S.D.=10) and the mean migration towards native NAF in the presence of NAF (44-72) (S.D.=13) was 52% above control migration (Table 2). These reductions are statistically significant at p<0.002 by Student's t test. These two peptides inhibited NAF induced migration by 59 and 34% respectively. When NAF was incubated in the presence of both peptides the mean migration towards native NAF was 24% (S.D.=3) above controls for a total inhibition of NAF activity of 70%. Therefore, the inhibitory effects of the peptides were approximately additive.
as §1, §2

[6] = NAF 1 × 10^-8 M plus peptide 1 × 10^-6 M in lower well
[7] = NAF 1 × 10^-8 M, neutrophils preincubated with peptide 1 × 10^-6 M (10 min, room temperature)

Q: What does the source list for “(7-37): peptide of Tanaka et al. corresponding to residues (7-37) of the NAF sequence (AKELRCQCIKTYSKPFHPKFIKELRVIESGP; Interleukin-8; UniProt P10145 29-59, looked up, fragment)”?
A: chemotactic activity (in words) [1]: inactive; inhibition of chemotaxis (in words) [1]: did not find that any of their synthetic peptides inhibited chemotaxis

Q: Which results are given for “(30-72): peptide of Tanaka et al. corresponding to residues (30-72) of the NAF sequence (LRVIESGPHCANTEIIVKLSDGRELCLDPKENWVQRVVEKFLK; Interleukin-8; UniProt P10145 52-94, looked up, fragment)”?
A: chemotactic activity (in words) [1]: inactive; inhibition of chemotaxis (in words) [1]: did not find that any of their synthetic peptides inhibited chemotaxis

Q: Which results are given for “(17-37): peptide of Tanaka et al. corresponding to residues (17-37) of the NAF sequence (TYSKPFHPKFIKELRVIESGP; Interleukin-8; UniProt P10145 39-59, looked up, fragment)”?
A: chemotactic activity (in words) [1]: inactive; inhibition of chemotaxis (in words) [1]: did not find that any of their synthetic peptides inhibited chemotaxis

Q: What does the source list for Neutrophil activating factor [NAF]?
A: DISTANCE MOVED (% of control) ([2]; NAF alone, 1 × 10^-8 M): 179 ± 3 % of control; mean migration above that of buffer alone ([2]; native NAF 1 × 10^-8 M): 79%; effect on cell migration (in words) [2]: increase the cell migration; release of β-D-glucuronidase from neutrophils (in words) [3]: Neither NAF nor any of the synthetic peptides caused the cells to degranulate; also recorded: failed to release β-D-glucuronidase; also recorded: None of the synthetic peptides, nor native NAF, caused release of β-D-glucuronidase

Q: For KELRCQCIKTYSKPFHPKFIKEL [NAF(3-25)], which “DISTANCE MOVED (% of control)” value [4] is on record?
A: The value was 190 ± 18 % of control.

Q: And the “DISTANCE MOVED (% of control)” value [5, 6]?
A: The value was 132 ± 10 % of control.

Q: What about the “INHIBITION (%) of NAF-induced neutrophil chemotaxis” value (shortened to “INHIBITION (%)”) [5, 6] of the same substance?
A: The value was 59 ± 13%.

Q: What about the “INHIBITION (%)” value ([5]; NAF 1 × 10^-8 M plus peptide 1 × 10^-6 M in lower well, listed as NAF (3-25)) of the same substance?
A: The value was 59%.

Q: What about the “DISTANCE MOVED (% of control)” value [5, 7] of the same substance?
A: Its value is 97 ± 11 % of control.

Q: What about the “INHIBITION (%)” value [5, 7] of the same substance?
A: The value was 104 ± 14%.

Q: What about the “mean migration towards native NAF in the presence of peptide, above control migration” value ([5]; native NAF 1 × 10^-8 M plus synthetic peptide(s) 1 × 10^-6 M) of the same substance?
A: Its value is 32%.

Q: And the “effect on the action of native NAF (in words)” value ([5]; native NAF plus synthetic peptide)?
A: The value was “able to reduce neutrophil chemotaxis; also recorded: reduce the action of native NAF”.

Q: And the “DISTANCE MOVED (% of control)” value ([2]; synthetic peptide alone, 1 × 10^-6 M in lower well)?
A: The value was 100 ± 6 % of control.

Q: Which “DISTANCE MOVED (% of control)” value ([2]; FMLP alone, 5 × 10^-9 M) does the source give for FMLP here?
A: Its value is 180 ± 17 % of control.

Q: What about the “effect on cell migration (in words)” value [2] of the same substance?
A: The value was “increase the cell migration”.

Q: And the “release of β-D-glucuronidase from neutrophils (in words)” value [3]?
A: The value was “stimulated release from the cells was possible”.
